Earlier results, collected in US6713046B1, “Magnetic resonance imaging agents for the delivery of therapeutic agents” (Research Corporation Technologies, priority 1997, dated 2004).

Conditions: thermodynamic stability of the Gd(III) chelate complex; background statement

O=C([O-])CN1CCN(CC(=O)[O-])CCN(CC(=O)O)CCN(CC(=O)[O-])CC1.[Gd+3] [Gd-DOTA]
stability constant (K), formation constant, logK: 28.5
